From publication PMC6365646, “Oxidative Pathways of Deoxyribose and Deoxyribonate Catabolism” (mSystems, 2019)

Biological target: T1, deoxyribose dehydrogenase (iorAB-like dehydrogenase) (Pseudomonas simiae, UniProt A0A1N7UDX6)
T1 construct: gene PS417_10885; each subunit His-tagged (pET32a) in E. coli BL21(DE3), bands at 80 kDa (10885) and 17 kDa (10890); not purified, two clarified lysates mixed; native cytochrome c PS417_10880 not included; with Isoquinoline 1-oxidoreductase subunit alpha-like (deoxyribose dehydrogenase small subunit)
T1 sequence (A0A1N7UDX6 2-739): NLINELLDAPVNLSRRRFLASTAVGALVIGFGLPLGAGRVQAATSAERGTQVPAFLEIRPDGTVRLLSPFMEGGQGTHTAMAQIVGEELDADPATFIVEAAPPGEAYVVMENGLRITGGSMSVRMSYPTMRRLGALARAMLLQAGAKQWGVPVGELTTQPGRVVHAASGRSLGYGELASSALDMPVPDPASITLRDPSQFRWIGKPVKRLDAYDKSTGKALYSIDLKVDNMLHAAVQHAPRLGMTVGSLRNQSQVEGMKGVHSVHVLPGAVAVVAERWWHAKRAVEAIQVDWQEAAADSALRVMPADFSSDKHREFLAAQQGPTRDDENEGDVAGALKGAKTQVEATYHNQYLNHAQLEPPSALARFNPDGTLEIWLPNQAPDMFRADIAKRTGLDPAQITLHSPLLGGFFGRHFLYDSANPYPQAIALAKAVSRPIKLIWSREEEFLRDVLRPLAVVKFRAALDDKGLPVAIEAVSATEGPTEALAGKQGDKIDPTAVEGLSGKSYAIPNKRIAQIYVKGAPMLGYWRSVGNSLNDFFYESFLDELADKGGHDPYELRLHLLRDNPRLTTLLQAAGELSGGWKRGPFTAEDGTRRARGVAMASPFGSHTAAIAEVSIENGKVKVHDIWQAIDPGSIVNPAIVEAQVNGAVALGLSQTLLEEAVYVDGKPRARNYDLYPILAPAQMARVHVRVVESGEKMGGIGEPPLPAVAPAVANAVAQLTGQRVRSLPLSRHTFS
T1 sequence (A0A1N7UJP4 1-151 partner): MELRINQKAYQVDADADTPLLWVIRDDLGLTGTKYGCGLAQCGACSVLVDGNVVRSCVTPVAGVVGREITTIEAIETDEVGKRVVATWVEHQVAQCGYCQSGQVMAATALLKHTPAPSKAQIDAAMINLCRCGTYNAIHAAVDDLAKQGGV
Assay: LC-MS/MS detection of deoxyribonate product, mixed E. coli lysates against empty-vector lysate
Type: biochemical
Details: 1 mM deoxyribose, 100 uM phenazine methosulfate as electron acceptor, 100 mM NH4HCO3, room temperature, 1 h, with or without lactonase

| Structure (SMILES) | LC-MS/MS detection of deoxyribonate product, mixed E. coli lysates against empty (may form through spontaneous or lysate hydrolysis of deoxyribono) | LC-MS/MS detection of deoxyribonate product, mixed E. coli lysates against empty |
| --- | --- | --- |
| O=C(O)C[C@H](O)[C@H](O)CO [2-deoxy-D-ribonate] | this product had a fragmentation pattern very similar to that of a 2-deoxy-D-ribonate standard | – |
| OC[C@H]1OC(O)C[C@@H]1O (stereo partly drawn) [2-deoxy-D-ribose] | – | The iorAB-like dehydrogenase converted deoxyribose to a compound with the same mass-to-charge ratio |
